Reference: patent US7084248B2, “Peptide composition and method for delivering substances into the cytosol of cells” (Gene Tools, LLC, priority 2004, dated 2006)

Tested on: cultured animal cells
Assay: Functional assay of cytosolic delivery of a Morpholino antisense oligo (splice-correction luciferase system)
Assay type: cell-based
Conditions: all-histidine peptides
From the text: In contrast to the above design flexibility, the respective sizes of the lipophilic and weak-base faces of the delivery peptide have a substantial impact on that peptide's delivery efficiency. […] These assays utilized an established functional measurement of cytosolic delivery of a Morpholino antisense oligo in cultured cells (Kang, 1998). A representative test procedure of this type is described in Example 6, in a later section of his application.
The most definitive assessment of cytosolic delivery is one wherein when a cargo is delivered into the cytosol of a cell it generates a quantifiable signal proportional to the amount of cargo delivered into the cytosol. Also, for definitive results, that cargo should be completely stable within the cytosol so that increases due to delivery are not underestimated due to losses from degradation.
In the Kole test system (commercially available from GENE TOOLS, LLC, Philomath, Oreg.) a cell line has been stably transfected with a gene that codes for an RNA transcript that includes a mutation that generates a splicing error which acts to prevent the translation of luciferase coded by that RNA transcript. […] This leads to normal translation of the luciferase, and the light emission from that luciferase is readily quantitated in a luminometer. […]

Substance: poly-histidine
- delivery of a Morpholino antisense oligo into the cytosol of cultured animal cells: neither poly-histidine nor defined-length oligo-histidines achieved significant delivery
